Organism: Rattus norvegicus
Assay: Open TG-GATES - Regimen: Single
Type: toxicity, organism-based, Sprague-Dawley
Parameters: regimen Single, gender Male, age 6 weeks
Details: in vivo, po, route gavage; for APTT / Bas / Eos / Fbg / Hb / Ht / Lym / MCH / MCHC / MCV / Mono / Neu / PT / Plat / RBC / Ret / WBC: tissue Blood; for KIDNEY_L / KIDNEY_R / KIDNEY_TOTAL: tissue Kidney; for ALP / AST / CRE / Cl / DBIL / GLC / IP / K / LDH / Na / PL / RALB / TBIL / TC / TG / TP / gamma-GTP / ALT: tissue Plasma
[1] = 0 mg/kg, 3 h, dose level Control
[2] = 0 mg/kg, 6 h, dose level Control
[3] = 0 mg/kg, 9 h, dose level Control
[4] = 0 mg/kg, 24 h, dose level Control

COc1cc2c(c(OC)c1OC)-c1ccc(OC)c(=O)cc1[C@@H](NC(C)=O)CC2 [COLCHICINE]
TERMINAL_BW [1]: 221.7 g | APTT [1]: 16.2 s | Bas [1]: 0% | Eos [1]: 0.8% | Fbg [1]: 209.4 mg/dL | Hb [1]: 13.1 g/dL | Ht [1]: 39.6% | Lym [1]: 81.8% | MCH [1]: 21.6 pg | MCHC [1]: 33.1% | MCV [1]: 65.2 fL | Mono [1]: 7% | Neu [1]: 10.4% | PT [1]: 11.8 s | Plat [1]: 118.4 x10_4/uL | RBC [1]: 608.4 x10_4/ul | Ret [1]: 10.3% | WBC [1]: 89.6 x10_2/uL | KIDNEY_L [1]: 1 g | KIDNEY_R [1]: 1.1 g | KIDNEY_TOTAL [1]: 2 g | ALP [1]: 835.6 IU/L | AST [1]: 65.6 IU/L | CRE [1]: 0.4 mg/dL | Cl [1]: 103.4 meq/L | DBIL [1]: 0.038 mg/dL | GLC [1]: 208.6 mg/dL | IP [1]: 9.3 mg/dL | K [1]: 4.5 meq/L | LDH [1]: 88.4 IU/L | Na [1]: 140.2 meq/L | PL [1]: 139.2 mg/dL | RALB [1]: 3.6 g/dL | TBIL [1]: 0.3 mg/dL | TC [1]: 78.4 mg/dL | TG [1]: 61 mg/dL | TP [1]: 5.4 g/dL | gamma-GTP [1]: 1.4 IU/L | TERMINAL_BW [2]: 218.4 g | APTT [2]: 16.3 s | Bas [2]: 0% | Eos [2]: 0.8% | Fbg [2]: 222.4 mg/dL | Hb [2]: 13.1 g/dL | Ht [2]: 39.9% | Lym [2]: 82.2% | MCH [2]: 21.6 pg | MCHC [2]: 33% | MCV [2]: 65.4 fL | Mono [2]: 6.6% | Neu [2]: 10.4% | PT [2]: 12 s | Plat [2]: 110.7 x10_4/uL | RBC [2]: 609.8 x10_4/ul | Ret [2]: 9.6% | WBC [2]: 104.3 x10_2/uL | KIDNEY_L [2]: 1 g | KIDNEY_R [2]: 1 g | KIDNEY_TOTAL [2]: 2 g | ALP [2]: 745.2 IU/L | ALT [2]: 27.6 IU/L | AST [2]: 59 IU/L | CRE [2]: 0.5 mg/dL | Cl [2]: 104 meq/L | DBIL [2]: 0.036 mg/dL | GLC [2]: 188.2 mg/dL | IP [2]: 10.1 mg/dL | K [2]: 4.6 meq/L | LDH [2]: 77.2 IU/L | Na [2]: 139 meq/L | PL [2]: 135.2 mg/dL | RALB [2]: 3.7 g/dL | TBIL [2]: 0.4 mg/dL | TC [2]: 73.2 mg/dL | TG [2]: 48.4 mg/dL | TP [2]: 5.5 g/dL | gamma-GTP [2]: 1.6 IU/L | TERMINAL_BW [3]: 218.9 g | APTT [3]: 16.3 s | Bas [3]: 0% | Eos [3]: 0.8% | Fbg [3]: 216.2 mg/dL | Hb [3]: 12.8 g/dL | Ht [3]: 38.9% | Lym [3]: 85.4% | MCH [3]: 21.6 pg | MCHC [3]: 33% | MCV [3]: 65.8 fL | Mono [3]: 5.4% | Neu [3]: 8.4% | PT [3]: 12.1 s | Plat [3]: 111 x10_4/uL | RBC [3]: 591.6 x10_4/ul | Ret [3]: 9.4% | WBC [3]: 88.7 x10_2/uL | KIDNEY_L [3]: 1 g | KIDNEY_R [3]: 1.1 g | KIDNEY_TOTAL [3]: 2.1 g | ALP [3]: 948.4 IU/L | ALT [3]: 28.8 IU/L | AST [3]: 64.4 IU/L | CRE [3]: 0.5 mg/dL | Cl [3]: 105.2 meq/L | DBIL [3]: 0.044 mg/dL | GLC [3]: 199.8 mg/dL | IP [3]: 9.9 mg/dL | K [3]: 4.9 meq/L | LDH [3]: 71.2 IU/L | Na [3]: 137.6 meq/L | PL [3]: 134.4 mg/dL | RALB [3]: 3.8 g/dL | TBIL [3]: 0.4 mg/dL | TC [3]: 77.6 mg/dL | TG [3]: 40 mg/dL | TP [3]: 5.4 g/dL | gamma-GTP [3]: 1.6 IU/L | TERMINAL_BW [4]: 232.9 g | APTT [4]: 16.4 s | Bas [4]: 0% | Eos [4]: 1.2% | Fbg [4]: 215.8 mg/dL | Hb [4]: 12.8 g/dL | Ht [4]: 38.6% | Lym [4]: 77.2% | MCH [4]: 21.7 pg | MCHC [4]: 33.1% | MCV [4]: 65.5 fL | Mono [4]: 7.2% | Neu [4]: 14.6% | PT [4]: 11.2 s | Plat [4]: 118.5 x10_4/uL | RBC [4]: 588.4 x10_4/ul | Ret [4]: 10.2% | WBC [4]: 102.4 x10_2/uL | KIDNEY_L [4]: 1.1 g | KIDNEY_R [4]: 1.1 g | KIDNEY_TOTAL [4]: 2.2 g | ALP [4]: 858 IU/L | AST [4]: 61.2 IU/L | CRE [4]: 0.5 mg/dL | Cl [4]: 102.8 meq/L | DBIL [4]: 0.022 mg/dL | GLC [4]: 203 mg/dL | IP [4]: 7.7 mg/dL | K [4]: 4.9 meq/L | LDH [4]: 86.2 IU/L | Na [4]: 137.6 meq/L | PL [4]: 156.8 mg/dL | RALB [4]: 3.8 g/dL | TBIL [4]: 0.4 mg/dL | TC [4]: 84.8 mg/dL | TG [4]: 122.8 mg/dL | TP [4]: 5.7 g/dL | gamma-GTP [4]: 1 IU/L | TERMINAL_BW (2 mg/kg, 3 h, dose level Low): 218.7 g

Reference: ChEMBL document CHEMBL3885861, “Open TG-GATES”
